B1: Guanylate kinase (Homo sapiens), Q16774 (protein)
chain: MSGPRPVVLSGPSGAGKSTLLKRLLQEHSGIFGFSVSHTTRNPRPGEENGKDYYFVTREVMQRDIAAGDFIEHAEFSGNLYGTSKVAVQAVQAMNRICVLDVDLQGVRNIKATDLRPIYISVQPPSLHVLEQRLRQRNTETEESLVKRLAAAQADMESSKEPGLFDVVIINDSLDQAYAELKEALSEEIKKAQRTGA

Legend:
[1] = test system: MRC5; experiment: The lowest concentration of compound producing overt cytotoxicity in virus-free MRC-5 cell cultures; format: functional; conditions: Homo sapiens
[2] = test system: MT4; experiment: Concentration required to inhibit HIV-1-induced cytopathic effect by 50% in MT-4 cells; format: functional, cell-based; conditions: Homo sapiens
[3] = test system: MRC5; experiment: Anti-herpes virus activity was evaluated against human cytomegalovirus (HCMV, strain AD-169) grown in MRC-5 cells; format: functional, cell-based
[4] = test system: MT4; experiment: Cytotoxic concentration required to reduce the viability of MT-4 cells; format: functional; conditions: Homo sapiens
[5] = test system: Vero; experiment: Anti-herpes virus activity was evaluated against Herpes simplex virus type 1 (HSV-1,strain HF) grown in Vero cells; format: functional, cell-based; conditions: Chlorocebus sabaeus
[6] = test system: Vero; experiment: Anti-herpes virus activity was evaluated against Herpes simplex virus type 2 (HSV-2,strain G) grown in Vero cells; format: functional, cell-based; conditions: Chlorocebus sabaeus
[7] = test system: Vero; experiment: The lowest concentration of compound producing overt cytotoxicity in virus-free vero cell cultures; format: functional; conditions: Chlorocebus sabaeus
[8] = test system: C8166; experiment: Concentration required to inhibit p24 viral antigen production by 50% in C-8166 cells; format: functional, cell-based; conditions: Homo sapiens
[9] = test system: Guanylate kinase (Sus scrofa); experiment: Percent efficiency phosphorylated by guanylate kinase taken from hog brain
[10] = substrate: C=C(COCP(=O)(O)O)Cn1cnc2c(O)nc(N)nc21; experiment: (§1) Michaelis-Menten constant (Km) for guanylate kinase was determined; conditions: Sus scrofa
[11] = substrate: Nc1nc2c(ncn2[C@@H]2O[C@H](COP(=O)(O)O)[C@@H](O)[C@H]2O)c(=O)[nH]1; experiment: as §1
[12] = substrate: C=C(COCP(=O)(O)O)Cn1cnc2c(O)nc(N)nc21; experiment: Vmax for guanylate kinase was determined; conditions: Sus scrofa

Row | Molecule | CC50 [1] | EC50 [2] | EC50 [3] | CC50 [4] | EC50 [5] | EC50 [6] | CC50 [7] | EC50 [8] | Efficacy [9] | Km [10] | Km [11] | Vmax [12]
1 | C=C(COCP(=O)(O)O)Cn1cnc2c(O)nc(N)nc21 | > 250 µM | 25 µM | 34 µM | 1800 µM | > 250 µM | > 250 µM | > 250 µM | 1.9 µM | 0.6% | – | – | –
2 | C=C(COCP(=O)(O)O)Cn1ccc(N)nc1=O | > 250 µM | > 100 µM | > 250 µM | > 100 µM | > 250 µM | > 250 µM | > 250 µM | > 100 µM | – | – | – | –
3 | Nc1ncnc2c1ncn2CC#CCOCP(=O)(O)O | > 250 µM | > 100 µM | > 250 µM | 800 µM | > 250 µM | > 250 µM | ≥ 250 µM | > 100 µM | – | – | – | –
4 | Nc1nc(O)c2ncn(C/C=C\COCP(=O)(O)O)c2n1 | > 250 µM | > 100 µM | > 250 µM | > 1000 µM | 37 µM | > 250 µM | > 250 µM | > 100 µM | – | – | – | –
5 | Nc1ccn(C/C=C\COCP(=O)(O)O)c(=O)n1 | > 250 µM | > 100 µM | > 250 µM | > 100 µM | > 250 µM | > 250 µM | > 250 µM | > 100 µM | – | – | – | –
6 | Nc1ncnc2c1ncn2C/C=C\COCP(=O)(O)O | > 250 µM | 170 µM | > 250 µM | > 1000 µM | > 250 µM | > 250 µM | ≥ 250 µM | 38 µM | – | – | – | –
7 | Nc1ccn(CC#CCOCP(=O)(O)O)c(=O)n1 | > 250 µM | > 100 µM | > 250 µM | > 100 µM | > 250 µM | > 250 µM | > 250 µM | > 100 µM | – | – | – | –
8 | Nc1ncnc2c1ncn2CCOCP(=O)(O)O [ADEFOVIR] | > 250 µM | 22 µM | 36 µM | 187 µM | 58 µM | 69 µM | ≥ 250 µM | 1.7 µM | – | – | – | –
9 | Cc1cn([C@H]2C[C@H](N=[N+]=[N-])[C@@H](CO)O2)c(=O)[nH]c1=O [ZIDOVUDINE] | – | 0.035 µM | – | 113 µM | – | – | – | 0.03 µM | – | – | – | –
10 | Nc1nc2c(ncn2COCCO)c(=O)[nH]1 [ACYCLOVIR] | ≥ 100 µM | – | 18 µM | – | 6 µM | 3 µM | > 100 µM | – | – | – | – | –
11 | C=C(COCP(=O)(O)O)Cn1cnc2c(N)ncnc21 | > 250 µM | > 100 µM | > 250 µM | > 1000 µM | 36 µM | > 250 µM | > 250 µM | > 100 µM | – | – | – | –
12 | B1 | – | – | – | – | – | – | – | – | – | 238 µM | 18 µM | 8%

— ChEMBL document CHEMBL1128166, “Synthesis and antiviral activity of rigid acyclonucleotide analogs” (Bioorg Med Chem Lett, 1995)
